From patent US6468541B2, “Natural, non-allergenic, immune system stimulant” (Chinese Herbal USA, Inc., priority 2000, dated 2002)

Columns and labels:
[1] = tested on: peripheral blood mononuclear cells (PBMC); assay: IFN-γ secretion by PBMC incubated 72 h with Immune+™ with or without PHA, ELISA (Example 2); format: cell-based, human; details: PHA alone, 10 μg/ml
Method: (§1) Ten mg of Immune+™ was suspended in 1 ml RPMI-1640 with 10% heat inactivated fetal bovine serum (media). The suspension was shaken vigorously on a vortex mixer. The insoluble components were quickly pelleted and the remaining suspension filtered twice: first through a 0.45 micron syringe filter followed by a 0.2 micron syringe filter. This filtrate was used as our stock (approx. 10 mg/ml) from which dilutions were made for the incubations with PBMC. The stock solution was diluted in media prior to treatment with PBMC.
(§2) Volunteers of various ethnic backgrounds and ranging in age from 18-35 years, participated in this study. […] Viability was determined by trypan blue exclusion and was consistently >96%. […]
(§3) Aliquots of culture supernates were frozen immediately upon harvest and stored at −20° C. until analysis by ELISA. Concentrations of IL-1 β and IFN-γ were determined using the DuoSet® ELISA Development System (R & D Systems, Minneapolis, Minn.) with a detection limit of 3.9 and 15.6 pg/ml respectively.
(§4) The effects of various concentrations of Immune+™ on IL-1β and IFN-γ production in either unstimulated or PHA-stimulated PBMC were analyzed using a one-way ANOVA followed by post-hoc Tukey comparison. […]
(§5) The concentrations of IL-1β and IFN-γ in the supernate were measured by ELISA.

[2] = tested on: peripheral blood mononuclear cells (PBMC); assay: IL-1β secretion by PBMC incubated 72 h with Immune+™ with or without PHA, ELISA (Example 2); format: cell-based, human; details: PHA alone, 10 μg/ml
Method: as §1, §2, §3, §4, §5

normal PBMC = details: glycyrrhizin alone; cited from earlier work

phytohemagglutinin [PHA]
IFN-γ production [1]: resulted in a production of IFN-γ | IL-1β production [2]: no effect

CC1(C)[C@@H](O[C@H]2O[C@H](C(=O)O)[C@@H](O)[C@H](O)[C@H]2O[C@@H]2O[C@H](C(=O)O)[C@@H](O)[C@H](O)[C@H]2O)CC[C@]2(C)[C@H]3C(=O)C=C4[C@@H]5C[C@@](C)(C(=O)O)CC[C@]5(C)CC[C@@]4(C)[C@]3(C)CC[C@@H]12 [glycyrrhizin, 20β-carboxy-11-oxo-30-norolean-12-en-3 βyl-2-O-β-D-glucopyranuronosyl-α-D-glucopyranosiduronic acid]
IFN-γ production (normal PBMC): did not markedly alter
